Assay: molar heat capacity at constant pressure; xn = mol fraction of the nth substance listed
Settings: 101.3 kPa, Liquid, Small sample (50 mg) DSC

CCC(C)(C)O [2-methylbutan-2-ol] + CCCCCCC
Settings | molar heat capacity at constant pressure [J/K/mol]
336.14 K, x1 = 0.1 | 252.29
336.14 K, x1 = 0.1547 | 260.02
336.14 K, x1 = 0.1999 | 265.26
336.14 K, x1 = 0.2993 | 273.56
336.14 K, x1 = 0.4051 | 279.11
336.14 K, x1 = 0.4986 | 282.65
336.14 K, x1 = 0.5981 | 285.05
336.14 K, x1 = 0.7015 | 286.5
336.14 K, x1 = 0.8023 | 286.51
336.14 K, x1 = 0.9139 | 285.7
336.14 K, x1 = 0.9609 | 284.91
337.15 K, x1 = 0.0061 | 240.08
337.15 K, x1 = 0.0249 | 241
337.15 K, x1 = 0.0494 | 244
337.15 K, x1 = 0.1 | 252.41
337.15 K, x1 = 0.1547 | 260.16
337.15 K, x1 = 0.1999 | 265.46
337.15 K, x1 = 0.2993 | 273.86
337.15 K, x1 = 0.4051 | 279.59
337.15 K, x1 = 0.4986 | 283.2
337.15 K, x1 = 0.5981 | 285.63
337.15 K, x1 = 0.7015 | 287.22
337.15 K, x1 = 0.8023 | 287.25
337.15 K, x1 = 0.9139 | 286.44
337.15 K, x1 = 0.9609 | 285.69
338.14 K, x1 = 0.0061 | 240.6
338.14 K, x1 = 0.0249 | 241.26
338.14 K, x1 = 0.0494 | 244.22
338.14 K, x1 = 0.1 | 252.49
338.14 K, x1 = 0.2993 | 274.14
338.14 K, x1 = 0.4051 | 280.08
338.14 K, x1 = 0.4986 | 283.63
338.14 K, x1 = 0.5981 | 286.18
338.14 K, x1 = 0.7015 | 287.86
338.14 K, x1 = 0.8023 | 287.94
338.14 K, x1 = 0.9139 | 287.19
338.16 K, x1 = 0.1547 | 260.35
338.16 K, x1 = 0.1999 | 265.67
338.16 K, x1 = 0.9609 | 286.41
339.14 K, x1 = 0.0061 | 241
339.14 K, x1 = 0.0249 | 241.65
339.14 K, x1 = 0.0494 | 244.45
339.14 K, x1 = 0.1 | 252.62
339.14 K, x1 = 0.1547 | 260.43
339.14 K, x1 = 0.1999 | 265.8
339.14 K, x1 = 0.2993 | 274.34
339.14 K, x1 = 0.4051 | 280.35
339.14 K, x1 = 0.4986 | 284.12
339.14 K, x1 = 0.5981 | 286.77
339.14 K, x1 = 0.7015 | 288.43
339.14 K, x1 = 0.8023 | 288.55
339.14 K, x1 = 0.9139 | 287.89
339.14 K, x1 = 0.9609 | 287.02
340.15 K, x1 = 0.0061 | 241.53
340.15 K, x1 = 0.0249 | 242.15
340.15 K, x1 = 0.0494 | 244.83
340.15 K, x1 = 0.1 | 252.82
340.15 K, x1 = 0.1547 | 260.57
340.15 K, x1 = 0.1999 | 266.02
340.15 K, x1 = 0.2993 | 274.71
340.15 K, x1 = 0.4051 | 280.76
340.15 K, x1 = 0.4986 | 284.68
340.15 K, x1 = 0.5981 | 287.28
340.15 K, x1 = 0.7015 | 289.07
340.15 K, x1 = 0.8023 | 289.24
340.15 K, x1 = 0.9139 | 288.58
340.15 K, x1 = 0.9609 | 287.73
341.14 K, x1 = 0.0249 | 242.51
341.14 K, x1 = 0.9139 | 289.17
341.16 K, x1 = 0.0061 | 241.89
341.16 K, x1 = 0.0494 | 245.03
341.16 K, x1 = 0.1 | 252.79
341.16 K, x1 = 0.1547 | 260.64
341.16 K, x1 = 0.1999 | 266.06
341.16 K, x1 = 0.2993 | 274.84
341.16 K, x1 = 0.4051 | 281
341.16 K, x1 = 0.4986 | 284.87
341.16 K, x1 = 0.5981 | 287.66
341.16 K, x1 = 0.7015 | 289.5
341.16 K, x1 = 0.8023 | 289.74
341.16 K, x1 = 0.9609 | 288.3
342.14 K, x1 = 0.0061 | 242.38
342.14 K, x1 = 0.0249 | 242.91
342.14 K, x1 = 0.0494 | 245.35
342.14 K, x1 = 0.1 | 253
342.14 K, x1 = 0.1547 | 260.67
342.14 K, x1 = 0.1999 | 266.17
342.14 K, x1 = 0.2993 | 275.1
342.14 K, x1 = 0.4051 | 281.32
342.14 K, x1 = 0.4986 | 285.37
342.14 K, x1 = 0.5981 | 288.22
342.14 K, x1 = 0.7015 | 290.08
342.14 K, x1 = 0.8023 | 290.39
342.14 K, x1 = 0.9139 | 289.86
342.14 K, x1 = 0.9609 | 288.96
343.15 K, x1 = 0.0061 | 242.71
343.15 K, x1 = 0.0249 | 243.18
343.15 K, x1 = 0.0494 | 245.62
343.15 K, x1 = 0.1 | 253.03
343.15 K, x1 = 0.1547 | 260.73
343.15 K, x1 = 0.1999 | 266.34
343.15 K, x1 = 0.2993 | 275.23
343.15 K, x1 = 0.4051 | 281.6
343.15 K, x1 = 0.4986 | 285.7
343.15 K, x1 = 0.5981 | 288.61
343.15 K, x1 = 0.7015 | 290.51
343.15 K, x1 = 0.8023 | 290.89
343.15 K, x1 = 0.9139 | 290.38
343.15 K, x1 = 0.9609 | 289.53
344.16 K, x1 = 0.0061 | 243.26
344.16 K, x1 = 0.0249 | 243.63
344.16 K, x1 = 0.0494 | 245.97
344.16 K, x1 = 0.1 | 253.15
344.16 K, x1 = 0.1547 | 260.83
344.16 K, x1 = 0.1999 | 266.48
344.16 K, x1 = 0.2993 | 275.42
344.16 K, x1 = 0.4051 | 281.89
344.16 K, x1 = 0.4986 | 286.07
344.16 K, x1 = 0.5981 | 289.06
344.16 K, x1 = 0.7015 | 291.07
344.16 K, x1 = 0.8023 | 291.49
344.16 K, x1 = 0.9139 | 291.02
344.16 K, x1 = 0.9609 | 290.18
345.14 K, x1 = 0.0061 | 243.73

Source: the NIST ThermoML archive (doi:10.1016/j.jct.2008.10.010)
